Experimental data: ChEMBL document CHEMBL1150403, “Synthesis of Hsp90 inhibitor dimers as potential antitumor agents” (Bioorg Med Chem, 2008)

Assays:
Assay type in all cases: functional, cell-based
MCF7 [1] = test: Cytotoxicity against human MCF7 cells after 24 hrs; settings: MCF7, 24 h
SK-BR-3 = test: Cytotoxicity against human SKBR3 cells after 24 hrs; settings: SK-BR-3, 24 h
MCF7 [2] = test: Induction of Her2 degradation in human MCF7 cells by Western blotting analysis

**Q.** How did the IC50 (MCF7 [1]) turn out when `COc1cc(Cc2nc3c(N)ncnc3n2CCCC#CCNCCCCCCCCCCCCCCCCNCC#CCCCn2c(Cc3cc(OC)c(OC)c(OC)c3)nc3c(N)ncnc32)cc(OC)c1OC` was run?
**A.** 1.57 µM

**Q.** What about the IC50 (SK-BR-3) of the same compound?
**A.** 3.18 µM

**Q.** `COc1cc(Cc2nc3c(N)ncnc3n2CCCC#CCNCCCCCCCCNCC#CCCCn2c(Cc3cc(OC)c(OC)c(OC)c3)nc3c(N)ncnc32)cc(OC)c1OC` was tested. Which IC50 (MCF7 [1]) did it give?
**A.** 30.6 µM

**Q.** What about the IC50 (SK-BR-3) of the same compound?
**A.** 85.7 µM

**Q.** `COc1cc(Cc2nc3c(N)ncnc3n2CCCC#CCNCCCCNCC#CCCCn2c(Cc3cc(OC)c(OC)c(OC)c3)nc3c(N)ncnc32)cc(OC)c1OC` was tested. Which IC50 (MCF7 [1]) did it give?
**A.** > 100 µM

**Q.** And the IC50 (SK-BR-3)?
**A.** > 100 µM

**Q.** For `CO[C@H]1/C=C/C=C(\C)C(=O)NC2=CC(=O)C(NCCCCNC3=C4C[C@@H](C)C[C@H](OC)[C@H](O)[C@@H](C)/C=C(\C)[C@H](OC(N)=O)[C@@H](OC)/C=C/C=C(\C)C(=O)NC(=CC3=O)C4=O)=C(C[C@@H](C)C[C@H](OC)[C@H](O)[C@@H](C)/C=C(\C)[C@@H]1OC(N)=O)C2=O`, which IC50 (MCF7 [1]) is on record?
**A.** 1.11 µM

**Q.** And the IC50 (SK-BR-3)?
**A.** 0.258 µM

**Q.** How did the IC50 (MCF7 [1]) turn out when `CO[C@H]1/C=C/C=C(\C)C(=O)NC2=CC(=O)C(NCCCCCCCCCCCCCCCCNC3=C4C[C@@H](C)C[C@H](OC)[C@H](O)[C@@H](C)/C=C(\C)[C@H](OC(N)=O)[C@@H](OC)/C=C/C=C(\C)C(=O)NC(=CC3=O)C4=O)=C(C[C@@H](C)C[C@H](OC)[C@H](O)[C@@H](C)/C=C(\C)[C@@H]1OC(N)=O)C2=O` was run?
**A.** 0.431 µM

**Q.** What about the IC50 (SK-BR-3) of the same compound?
**A.** 0.15 µM

**Q.** With `COc1cc(Cc2nc3c(N)ncnc3n2CCCC#CCO)cc(OC)c1OC` as the compound, how does the IC50 (MCF7 [1]) read?
**A.** > 100 µM

**Q.** What about the IC50 (SK-BR-3) of the same compound?
**A.** > 100 µM

**Q.** For `COc1cc(Cc2nc3c(N)ncnc3n2CCCC#CCNCCCCCCCCCCCCCCCCCCCCNCC#CCCCn2c(Cc3cc(OC)c(OC)c(OC)c3)nc3c(N)ncnc32)cc(OC)c1OC`, which IC50 (MCF7 [1]) is on record?
**A.** 1.46 µM

**Q.** What about the IC50 (SK-BR-3) of the same compound?
**A.** 1.31 µM

**Q.** Which results are given for `COc1cc(Cc2nc3c(N)ncnc3n2CCCC#CCNCCCCCCCCCCCCNCC#CCCCn2c(Cc3cc(OC)c(OC)c(OC)c3)nc3c(N)ncnc32)cc(OC)c1OC`?
**A.** IC50 (MCF7 [1]): 4.68 µM; Activity (MCF7 [2]): Dose-dependent effect; IC50 (SK-BR-3): 5.73 µM

**Q.** For `C#CCCCn1c(Cc2cc(OC)c(OC)c(OC)c2)nc2c(N)ncnc21`, which IC50 (MCF7 [1]) is on record?
**A.** 45.9 µM

**Q.** And the IC50 (SK-BR-3)?
**A.** 31.8 µM

**Q.** Which results are given for `C[C@@H]1C[C@H]2O[C@@H]2/C=C\C=C\C(=O)Cc2c(Cl)c(O)cc(O)c2C(=O)O1` [RADICICOL]?
**A.** IC50 (MCF7 [1]): 0.0892 µM; IC50 (SK-BR-3): 0.00364 µM

**Q.** Which IC50 (MCF7 [1]) does the source give for `COc1cc(Cc2nc3c(N)ncnc3n2CCCC#CCNCCCCCCCCCCCCN)cc(OC)c1OC` here?
**A.** 55.1 µM

**Q.** What about the IC50 (SK-BR-3) of the same compound?
**A.** 13.1 µM

**Q.** With `CO[C@H]1/C=C/C=C(\C)C(=O)NC2=CC(=O)C(NCCCCCCCCCCCCNC3=C4C[C@@H](C)C[C@H](OC)[C@H](O)[C@@H](C)/C=C(\C)[C@H](OC(N)=O)[C@@H](OC)/C=C/C=C(\C)C(=O)NC(=CC3=O)C4=O)=C(C[C@@H](C)C[C@H](OC)[C@H](O)[C@@H](C)/C=C(\C)[C@@H]1OC(N)=O)C2=O` as the compound, how does the IC50 (MCF7 [1]) read?
**A.** 0.628 µM

**Q.** And the IC50 (SK-BR-3)?
**A.** 0.296 µM
